The record followed here is ChEMBL document CHEMBL4418499, “Inhibitors of trim33 and methods of use” (2018).

Experiment [1] addresses T1, E3 ubiquitin-protein ligase TRIM33 (Homo sapiens, UniProt Q9UPN9).
T1 sequence (Q9UPN9 whole entry): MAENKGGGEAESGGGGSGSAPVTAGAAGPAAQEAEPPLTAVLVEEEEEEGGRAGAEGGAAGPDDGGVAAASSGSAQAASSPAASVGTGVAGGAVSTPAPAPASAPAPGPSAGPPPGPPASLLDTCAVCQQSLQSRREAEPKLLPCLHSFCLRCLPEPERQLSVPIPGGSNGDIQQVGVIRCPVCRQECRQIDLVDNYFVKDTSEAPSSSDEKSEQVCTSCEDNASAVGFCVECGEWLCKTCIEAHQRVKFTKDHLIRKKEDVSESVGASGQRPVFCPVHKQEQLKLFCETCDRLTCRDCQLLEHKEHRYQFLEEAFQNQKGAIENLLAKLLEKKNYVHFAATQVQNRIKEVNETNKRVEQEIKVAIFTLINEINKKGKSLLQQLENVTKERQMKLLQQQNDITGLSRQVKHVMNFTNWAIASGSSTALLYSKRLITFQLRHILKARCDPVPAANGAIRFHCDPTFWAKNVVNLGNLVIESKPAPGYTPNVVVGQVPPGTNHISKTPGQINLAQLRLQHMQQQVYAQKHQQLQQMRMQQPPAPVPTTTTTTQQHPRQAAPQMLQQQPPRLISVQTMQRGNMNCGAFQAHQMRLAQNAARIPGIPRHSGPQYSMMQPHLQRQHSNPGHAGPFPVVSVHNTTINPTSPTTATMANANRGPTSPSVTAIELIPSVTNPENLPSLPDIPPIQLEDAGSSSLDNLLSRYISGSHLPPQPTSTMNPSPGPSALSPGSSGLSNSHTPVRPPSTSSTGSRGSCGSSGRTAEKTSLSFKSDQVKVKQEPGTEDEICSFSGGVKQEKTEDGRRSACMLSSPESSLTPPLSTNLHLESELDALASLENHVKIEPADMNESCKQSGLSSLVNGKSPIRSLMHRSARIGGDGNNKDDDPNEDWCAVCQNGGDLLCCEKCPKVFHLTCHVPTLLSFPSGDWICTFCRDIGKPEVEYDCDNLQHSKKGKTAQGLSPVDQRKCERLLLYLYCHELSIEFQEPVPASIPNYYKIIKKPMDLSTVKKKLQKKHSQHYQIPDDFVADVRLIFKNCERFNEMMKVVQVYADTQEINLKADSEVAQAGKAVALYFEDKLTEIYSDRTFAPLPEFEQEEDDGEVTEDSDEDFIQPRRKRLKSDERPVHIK
Description: Inhibition of recombinant TRIM33 PHD bromodomain (unknown origin) using biotinylated H3 peptide (H3K9me3K18ac) by AlphaScreen assay. (In general: In Alpha technology, singlet oxygen from a donor bead excites a nearby acceptor bead.)

The target in experiment [2] is T2, Transcription intermediary factor 1-alpha (Homo sapiens, UniProt O15164).
T2 sequence (O15164 whole entry): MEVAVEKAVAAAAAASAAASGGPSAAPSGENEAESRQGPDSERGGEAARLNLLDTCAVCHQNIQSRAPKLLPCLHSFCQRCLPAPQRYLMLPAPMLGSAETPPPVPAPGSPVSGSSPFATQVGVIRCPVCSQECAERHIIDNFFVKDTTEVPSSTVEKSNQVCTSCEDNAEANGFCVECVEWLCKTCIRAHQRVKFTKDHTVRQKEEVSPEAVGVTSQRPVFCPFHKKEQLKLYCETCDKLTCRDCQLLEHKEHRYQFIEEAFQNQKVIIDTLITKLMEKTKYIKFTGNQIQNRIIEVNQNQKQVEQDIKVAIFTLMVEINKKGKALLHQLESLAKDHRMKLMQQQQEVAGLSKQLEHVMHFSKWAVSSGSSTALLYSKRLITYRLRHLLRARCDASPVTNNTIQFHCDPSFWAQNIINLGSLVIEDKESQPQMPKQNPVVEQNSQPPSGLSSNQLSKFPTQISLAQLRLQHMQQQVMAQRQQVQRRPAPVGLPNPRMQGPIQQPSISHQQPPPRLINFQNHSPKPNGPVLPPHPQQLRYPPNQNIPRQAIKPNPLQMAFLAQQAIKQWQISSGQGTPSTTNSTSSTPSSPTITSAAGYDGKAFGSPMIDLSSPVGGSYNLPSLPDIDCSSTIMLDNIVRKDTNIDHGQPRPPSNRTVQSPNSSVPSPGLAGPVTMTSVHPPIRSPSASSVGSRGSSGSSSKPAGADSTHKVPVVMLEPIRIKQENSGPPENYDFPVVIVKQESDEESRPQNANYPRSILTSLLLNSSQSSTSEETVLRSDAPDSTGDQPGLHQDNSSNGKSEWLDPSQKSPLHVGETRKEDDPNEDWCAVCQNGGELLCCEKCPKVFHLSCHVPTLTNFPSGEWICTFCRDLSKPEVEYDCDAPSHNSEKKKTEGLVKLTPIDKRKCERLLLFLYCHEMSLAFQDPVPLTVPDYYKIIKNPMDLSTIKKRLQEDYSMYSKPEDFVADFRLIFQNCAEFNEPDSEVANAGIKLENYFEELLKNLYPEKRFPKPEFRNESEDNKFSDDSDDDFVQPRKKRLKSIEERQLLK
Description: Inhibition of recombinant TRIM24 (unknown origin) using biotinylated H3 peptide (H3K9me3K18ac) by AlphaScreen assay.

The species entered for experiment [3] is Homo sapiens. The experiment is described as follows: Selectivity index, ratio of IC50 for recombinant TRIM24 (unknown origin) to IC50 for recombinant TRIM33 PHD bromodomain (unknown origin).

On to `N#Cc1ccc(CNc2c(-c3ccc4nccn4c3)nc3cnccn23)cc1`, for which the values for the half-maximal inhibitory concentration (IC50) in experiment [1] and in experiment [2] were 46.1 µM and 818 µM, respectively. The Ratio IC50 in experiment [3] is 17.7.
On to `CCCOc1ccn2c(C(C)=O)cc(-c3nc4ccccn4c3NC3CCCCC3)c2c1`, for which the values for the IC50 in experiment [1] and in experiment [2] were 8.72 µM and 142 µM, respectively. For the same compound, in experiment [3], the Ratio IC50 is 16.2.
As for `Cc1nc(-c2nc3cnccn3c2NCCN2CCOCC2)c[nH]1`, the IC50 – broadly, the midpoint of a concentration-inhibition curve – in experiment [1] came out at 131 µM; in experiment [2], 1890 µM. Also, the Ratio IC50 in experiment [3] is 14.5.
`COC(=O)c1ccc2nc(-c3c[nH]c(C)n3)c(NCCc3ccc(OC)c(OC)c3)n2c1`: the values for the half-maximal inhibitory concentration (IC50) in experiment [1] and in experiment [2] were 7.17 µM and 622 µM, respectively. In experiment [3], the Ratio IC50 is 86.8.
In the case of `COC(=O)c1ccc2nc(-c3c[nH]c(C)n3)c(NC3CCCCC3)n2c1`, the IC50 in experiment [1] was 18.9 µM; in experiment [2], 180 µM. In addition, in experiment [3], the Ratio IC50 amounted to 9.48.
Regarding `Cc1nc(-c2nc3ccccn3c2NCCN2CCOCC2)c[nH]1`, the IC50 was 27.8 µM in experiment [1] and 242 µM in experiment [2]. Besides, in experiment [3], the Ratio IC50 was 8.73.
For the compound `CCCOc1ccn2c(C(C)=O)cc(-c3nc4cnccn4c3NCc3ccc(C#N)cc3)c2c1`, the half-maximal inhibitory concentration (IC50) in experiment [1] was 66 µM; in experiment [2], 819 µM. Besides, in experiment [3], the Ratio IC50 came to 12.4.
On to `COCCNc1c(-c2nc[nH]c2C)nc2ccccn12`, for which the IC50 in experiment [1] was found to be 16.3 µM; in experiment [2], 35.4 µM. The Ratio IC50 in experiment [3] is 2.17.
For `Cc1nc(-c2nc3ccccn3c2NCc2ccc(C#N)cc2)c[nH]1`, the IC50 in experiment [1] amounted to 26.8 µM; in experiment [2], 267 µM. Also, the Ratio IC50 in experiment [3] is 9.97.
Turning to `Cc1nc(-c2nc3ccccn3c2NC2CCCCC2)c[nH]1`, the half-maximal inhibitory concentration (IC50) in experiment [1] is 5.9 µM; in experiment [2] it was 96.5 µM. In experiment [3], the Ratio IC50 amounted to 16.4.
As for `Cc1nc(-c2nc3cnccn3c2NCc2ccc(C#N)cc2)c[nH]1`, the values for the IC50 in experiment [1] and in experiment [2] were 207 µM and 54.8 µM, respectively. Also, the Ratio IC50 in experiment [3] was 0.26.
`CCCOc1ccn2c(C(C)=O)cc(-c3nc4ccccn4c3Nc3ccc(OC)cc3)c2c1`: the IC50 was 9.6 µM in experiment [1] and 159 µM in experiment [2]. Further, the Ratio IC50 in experiment [3] was found to be 16.6.
As for `COC(=O)c1ccc2nc(-c3ccc4nccn4c3)c(Nc3ccc(OC)cc3)n2c1`, the results for the IC50 in experiment [1] and in experiment [2] were 22.2 µM and 375 µM, respectively. Moreover, the Ratio IC50 in experiment [3] worked out at 16.9.
The matching figures for `CCCOc1ccn2c(C(C)=O)cc(-c3nc4cnccn4c3NCCc3ccc(OC)c(OC)c3)c2c1`: 23.7 µM, 835 µM and 35.3.
Turning to `COCCNc1c(-c2ccc3nccn3c2)nc2ccccn12`, the figures for the IC50 in experiment [1] and in experiment [2] were 139 µM and 5800 µM, respectively. For the same compound, the Ratio IC50 in experiment [3] is 41.7.
The corresponding values for `N#Cc1ccc(CNc2c(-c3ccc4nccn4c3)nc3ccc(Br)cn23)cc1` are 48.1 µM, 296 µM and 6.16.
Regarding `COc1ccc(Nc2c(-c3ccc4nccn4c3)nc3ccc(Br)cn23)cc1`, the IC50 in experiment [1] was 70.3 µM; in experiment [2], 224 µM. For the same compound, the Ratio IC50 in experiment [3] was 3.19.
On to `CCCOc1ccn2c(C(C)=O)cc(-c3nc4cnccn4c3NCCN3CCOCC3)c2c1`, for which the IC50 in experiment [1] was determined as 151 µM; in experiment [2] it was 4980 µM. For the same compound, the Ratio IC50 in experiment [3] was determined as 32.9.
As to `Cc1[nH]cnc1-c1nc2ccc(Br)cn2c1NC1CCCCC1`, the figures for the IC50 in experiment [1] and in experiment [2] were 1.03 µM and 8.48 µM, respectively. Besides, the Ratio IC50 in experiment [3] came to 8.27.
`Cc1nc(-c2nc3ccc(Br)cn3c2NCc2ccc(C#N)cc2)c[nH]1`: the IC50 in experiment [1] amounted to 11.3 µM; in experiment [2], 81.7 µM. In addition, in experiment [3], the Ratio IC50 worked out at 7.21.
Consider `Cc1nc(-c2nc3ccc(Br)cn3c2NCCN2CCOCC2)c[nH]1`, for which the concentration for half-maximal inhibition (IC50) in experiment [1] amounted to 450 µM; in experiment [2], 194 µM. For the same compound, in experiment [3], the Ratio IC50 was 0.43.
Regarding `COC(=O)c1ccc2nc(-c3ccc4nccn4c3)c(NCCc3ccc(OC)c(OC)c3)n2c1`, the half-inhibitory concentration (IC50) in experiment [1] is 15.7 µM; in experiment [2], 5980 µM. Moreover, the Ratio IC50 in experiment [3] worked out at 380.
For the compound `CCCOc1ccn2c(C(C)=O)cc(-c3nc4cnccn4c3Nc3ccc(OC)cc3)c2c1`, the figures for the IC50 in experiment [1] and in experiment [2] were 38.5 µM and 226 µM, respectively. The Ratio IC50 in experiment [3] was found to be 5.87.
As to `COc1ccc(Nc2c(-c3c[nH]c(C)n3)nc3ccccn23)cc1`, the values for the IC50 in experiment [1] and in experiment [2] were 0.00319 µM and 1.71 µM, respectively. The Ratio IC50 in experiment [3] was 538.
For `COc1ccc(Nc2c(-c3ccc4nccn4c3)nc3cnccn23)cc1`, the IC50 in experiment [1] was determined as 38.3 µM; in experiment [2], 88.3 µM. Also, the Ratio IC50 in experiment [3] was 2.3.
As for `c1cn2c(NCCN3CCOCC3)c(-c3ccc4nccn4c3)nc2cn1`, the values for the IC50 in experiment [1] and in experiment [2] were 259 µM and 2190 µM, respectively. Moreover, the Ratio IC50 in experiment [3] came to 8.45.
Consider `CCCOc1ccn2c(C(C)=O)cc(-c3nc4ccccn4c3NCCc3ccc(OC)c(OC)c3)c2c1`, for which the IC50 in experiment [1] turned out to be 21.7 µM; in experiment [2] it was 372 µM. In addition, the Ratio IC50 in experiment [3] worked out at 17.1.
As for `CCCOc1ccn2c(C(C)=O)cc(-c3nc4ccc(C(=O)OC)cn4c3Nc3ccc(OC)cc3)c2c1`, the IC50 in experiment [1] came to 48.6 µM; in experiment [2], 355 µM. The Ratio IC50 in experiment [3] is 7.3.
`Cc1[nH]cnc1-c1nc2ccc(Br)cn2c1NCc1ccc(C#N)cc1`: the IC50 was 10.1 µM in experiment [1] and 29.3 µM in experiment [2]. Further, the Ratio IC50 in experiment [3] was determined as 2.91.
As for `COc1ccc(CCNc2c(-c3nc[nH]c3C)nc3ccccn23)cc1OC`, the IC50 in experiment [1] is 1.36 µM; in experiment [2], 31.7 µM. The Ratio IC50 in experiment [3] is 23.2.
The matching figures for `COC(=O)c1ccc2nc(-c3nc[nH]c3C)c(Nc3ccc(OC)cc3)n2c1`: 19.3 µM, 77.2 µM and 3.99.
Take `COC(=O)c1ccc2nc(-c3c[nH]c(C)n3)c(Nc3ccc(OC)cc3)n2c1`: the figures for the IC50 in experiment [1] and in experiment [2] were 8.57 µM and 111 µM, respectively. Also, in experiment [3], the Ratio IC50 is 13.
On to `CCCOc1ccn2c(C(C)=O)cc(-c3nc4ccccn4c3NCCN3CCOCC3)c2c1`, for which the results for the IC50 in experiment [1] and in experiment [2] were 69.6 µM and 250 µM, respectively. The Ratio IC50 in experiment [3] is 3.6.
As to `COCCNc1c(-c2ccc3nccn3c2)nc2cnccn12`, the IC50 in experiment [1] was determined as 190 µM; in experiment [2] it was 5450 µM. Further, in experiment [3], the Ratio IC50 was 28.6.
The matching figures for `COCCNc1c(-c2c[nH]c(C)n2)nc2ccc(Br)cn12`: 7.88 µM, 243 µM and 30.8.
Regarding `Cc1[nH]cnc1-c1nc2cnccn2c1NCCN1CCOCC1`, the values for the 50% inhibitory concentration (IC50) in experiment [1] and in experiment [2] were 71 µM and 119 µM, respectively. Moreover, the Ratio IC50 in experiment [3] came to 1.67.
